# Experimental data reported in patent US20150197492A1, “NOVEL INDENO[1,2-c]QUINOLIN-11-ONE DERIVATIVES, PREPARATION METHOD AND APPLICATION THEREOF” (National Defense Medical Center, priority 2014, published 2015).
# How the values were obtained:
# human PC-3 cells = experiment: Sulforhodamine B (SRB) assay, cytotoxicity against PC-3 cells; type: cell-based; details: SRB assay, PC-3 cells
# Procedure: Add 5% Fetal Bovine Serum (FBS) to 96-well plate and fix the cells with 10% TCA after 24 hours of incubation and add the compound (T0). Add DMSO and culture for another 48 hours and the cells are fixed in 0.4% (W/V), 10% TCA and SRB, and […]. Excess SRB is washed off by 1% acetic acid and cells stained with SRB are dissolved in 10 mmol/L Trizma base. The absorbance is measured at 515 nm. The treatment time is 0 (T0), control growth (C) and the increase of the compound (Tx) in the cells are shown below and are used to calculate the increase of the concentration of the compound in percentage. Growth inhibition (GI %) is calculated using the following formula 100−[(TX−T0)/(C−T0)]×100. The 50% growth inhibition concentration (IC50) is used to confirm the concentration of compound and thus results in 50% reduction of the treated cells which control the amount of total protein.
# This part of experimental results are SRB assays measuring cytotoxicity of the 26 synthesized compounds against human PC-3 cells and are summarized in Table 1 and 2.
# Solubility in DMSO = type: physicochemical; details: order SJ-2<SJ-24<SJ-3<SJ-11
# Text: The solubility of the four compounds in DMSO is poor, SJ-2<SJ-24<SJ-3<SJ-11, and therefore it is estimated and this is the reason why the three compounds which have previously proven to be effective against PC-3 cell line by SRB assays are ineffective in this experiment.
melting point [°C],solubility in DMSO (Solubility in DMSO),SMILES,Toxicity (%) (human PC-3 cells),GI % (10 μM) (human PC-3 cells) [%]
149 to 150,–,"O=C1c2cc(Cl)ccc2-c2c(N3CCCC3)nc3ccccc3c21 [SJ-4, 9-Chloro-6-(pyrrolidin-1-yl)-11H-indeno[1,2-c]quinolin-11-one]",47.2,100
191 to 192,–,"O=C1c2cc(Cl)ccc2-c2c(N3CCCCC3)nc3ccccc3c21 [SJ-5, 9-Chloro-6-(piperidin-1-yl)-11H-indeno[1,2-c]quinolin-11-one]",22.2,100
146 to 147,–,"O=C1c2cc(Cl)ccc2-c2c(N3CCCCCC3)nc3ccccc3c21 [SJ-7, 6-(Azepan-1-yl)-9-chloro-11H-indeno[1,2-c]quinolin-11-one]",41.7,100
182 to 184,–,"CCN1CCN(c2nc3ccccc3c3c2-c2ccc(Cl)cc2C3=O)CC1 [SJ-13, 9-Chloro-6-(4-ethylpiperazin-1-yl)-11H-indeno[1,2-c]quinolin-11-one]",29.7,100
174 to 175,–,"O=C1c2cc(Cl)ccc2-c2c(N3CCC(N4CCCCC4)CC3)nc3ccccc3c21 [SJ-15, 9-Chloro-6-(4-(piperidin-1-yl)piperidin-1-yl)-11H-indeno[1,2-c]quinolin-11-one]",0,98.83
208 to 209,–,"CN1CCC(N2CCN(c3nc4ccccc4c4c3-c3ccc(Cl)cc3C4=O)CC2)CC1 [SJ-21, 9-Chloro-6-(4-(1-methylpiperidin-4-yl)piperazin-1-yl)-11H-inden o[1,2-c]quinolin-11-one]",66,100

# The next lines start with the compound.
SMILES,melting point [°C],solubility in DMSO (Solubility in DMSO),Toxicity (%) (human PC-3 cells),GI % (10 μM) (human PC-3 cells) [%]
"O=C1c2cc(Cl)ccc2-c2c(N3CCN(Cc4ccccc4)CC3)nc3ccccc3c21 [SJ-17, 6-(4-Benzylpiperazin-1-yl)-9-chloro-11H-indeno[1,2-c]quinolin-11-one]",178 to 180,–,0,73.53
"O=C1c2cc(Cl)ccc2-c2c(N3CCN(c4ccccc4F)CC3)nc3ccccc3c21 [SJ-18, 9-Chloro-6-(4-(2-fluorophenyl)piperazin-1-yl)-11H-indeno[1,2-c]quinolin-11-one]",182 to 183,–,0,85.48
"COc1ccccc1N1CCN(c2nc3ccccc3c3c2-c2ccc(Cl)cc2C3=O)CC1 [SJ-19, 9-Chloro-6-(4-(2-methoxyphenyl)piperazin-1-yl)-11H-indeno[1,2-c]quinolin-11-one]",129 to 131,–,8.5,100
O=C1c2cc(Cl)ccc2-c2c(N3CCC4(CC3)OCCO4)nc3ccccc3c21 [SJ-22],218 to 219,–,42.6,100
"O=C1c2cc(Cl)ccc2-c2c(N3CCC(CCCC4CCNCC4)CC3)nc3ccccc3c21 [SJ-24, 9-Chloro-6-(4-(3-(piperidin-4-yl)propyl)piperidin-1-yl)-11H-indeno[1,2-c]quinolin-11-one]",149 to 151,poor,63.8,100
